The text below walks through data of article PMC8199331, “Baicalein Ameliorates Streptococcus suis-Induced Infection In Vitro and In Vivo” (International Journal of Molecular Sciences, 2021).

The target of the assay is SLY (suilysin) (Streptococcus suis, UniProt Q55996). The assay is described as follows: biochemical.
Chain of SLY (suilysin) (Q55996 28-497 limits assumed): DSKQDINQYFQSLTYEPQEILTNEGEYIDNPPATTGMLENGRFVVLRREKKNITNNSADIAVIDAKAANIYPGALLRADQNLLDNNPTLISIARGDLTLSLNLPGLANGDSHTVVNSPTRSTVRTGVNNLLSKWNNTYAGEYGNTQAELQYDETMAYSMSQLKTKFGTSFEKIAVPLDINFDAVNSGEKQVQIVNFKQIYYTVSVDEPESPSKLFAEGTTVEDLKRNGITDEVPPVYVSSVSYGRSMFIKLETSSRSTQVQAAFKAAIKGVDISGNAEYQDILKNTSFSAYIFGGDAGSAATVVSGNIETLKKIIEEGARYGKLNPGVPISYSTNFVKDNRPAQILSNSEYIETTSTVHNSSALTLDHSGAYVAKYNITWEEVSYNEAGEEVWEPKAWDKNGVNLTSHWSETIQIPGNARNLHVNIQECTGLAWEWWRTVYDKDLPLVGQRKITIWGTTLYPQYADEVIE

On to `O=c1cc(-c2ccccc2)oc2cc(O)c(O)c(O)c12` [Baicalein], for which the Kd amounted to 865 nM.
